Among the data in patent US3978045A, “N^2 -dansyl-L-arginine derivatives, and the pharmaceutically acceptable acid addition salts thereof” (priority 1973, dated 1976) are LD50 and IC (2-fold clotting time) values, retold here.

Counter-ions that a name gives are not always drawn.

A short description of series [1]: Acute toxicity (LD50) by oral administration in mice. To be noted: mouse, in vivo, per kilogram of body weight.
The target of another series is T1, thrombin (Bos taurus, UniProt P00735).
T1 construct: mature alpha-thrombin (light plus heavy chain) cut from prothrombin
The experiment in a line: Fibrinogen coagulation time (thrombin-induced clotting of fibrinogen). In kind it is biochemical. To be noted: bovine fibrinogen, borate saline buffer pH 7.4, thrombin 0.1 ml of 5 units/ml, 25°C; control coagulation time 50-55 seconds; read-out: Concentration required to prolong the coagulation time by a factor of 2. The method, then: The antithrombotic activities of the N^2 -dansyl-L-arginine derivatives of this invention were compared with those of a known antithrombotic agent, (N^2 -(p-tolylsulfonyl)-L-arginine methyl ester). by determining the fibrinogen coagulation time. The measurement of the fibrinogen coagulation time was conducted as follows:
Immediately after mixing, the reaction mixture was transferred from the ice bath to a bath thermostated at 25°C. Coagulation times were taken as the period between the time of transference to the 25°C bath and the time of the first appearance of fibrin threads.
The term "concentration required to prolong the coagulation time by a factor of two" is the concentration of an active ingredient required to prolong the normal coagulation time 50-55 seconds to 100-110 seconds.

Consider `CCCCOC(=O)[C@H](CCCNC(=N)N)NS(=O)(=O)c1cccc2c(N(C)C)cccc12` [N^2 -dansyl-L-arginine n-butyl ester], for which, in series [1], the LD50 (usually the dose at which mortality reaches 50%) was over 6000 mg/kg.

Molecule `CN(C)c1cccc2c(S(=O)(=O)N[C@@H](CCCNC(=N)N)C(=O)N3Cc4ccccc4C3)cccc12` [2-(N^2-dansyl-L-arginyl)isoindoline] had a 50% lethal dose (LD50) in series [1] of 1360 mg/kg.

On to `CC(C)CNC(=O)[C@H](CCCNC(=N)N)NS(=O)(=O)c1cccc2c(N(C)C)cccc12` [Sample 27, N^2 -dansyl-N-isobutyl-L-argininamide], for which, on thrombin, the IC (2-fold clotting time) was found to be 100 µM.

Regarding `CN(C)c1cccc2c(S(=O)(=O)N[C@@H](CCCNC(=N)N)C(=O)NCC3CCCCC3)cccc12` [Sample 37, N^2 -dansyl-N-cyclohexylmethyl-L-argininamide], the IC (2-fold clotting time) on thrombin worked out at 40 µM.

For `CCOC(=O)CCN(C)C(=O)[C@H](CCCNC(=N)N)NS(=O)(=O)c1cccc2c(N(C)C)cccc12` [Sample 51], the IC (2-fold clotting time) on thrombin is 15 µM.

On to `CN(C)c1cccc2c(S(=O)(=O)N[C@@H](CCCNC(=N)N)C(=O)NCc3ccccc3)cccc12` [Sample 39], for which the IC (2-fold clotting time) on thrombin was 50 µM.

In the case of `CN(C)c1cccc2c(S(=O)(=O)N[C@@H](CCCNC(=N)N)C(=O)N3CCOCC3)cccc12` [Sample 67, 4-(N^2-dansyl-L-arginyl)morpholine], the IC (2-fold clotting time) at thrombin is 1.5 µM.

Consider `CN(C)c1cccc2c(S(=O)(=O)N[C@@H](CCCNC(=N)N)C(=O)N3Cc4ccccc4C3)cccc12` [Sample 70, 2-(N^2-dansyl-L-arginyl)isoindoline], for which the IC (2-fold clotting time) at thrombin turned out to be 0.67 µM.

For the molecule `COCCCNC(=O)[C@H](CCCNC(=N)N)NS(=O)(=O)c1cccc2c(N(C)C)cccc12` [Sample 29], on thrombin, the IC (2-fold clotting time) was determined as 65 µM.

In the case of `CCOC(=O)CCCNC(=O)[C@H](CCCNC(=N)N)NS(=O)(=O)c1cccc2c(N(C)C)cccc12` [Sample 34], the IC (2-fold clotting time) on thrombin was 500 µM.

On to `CN(C)c1cccc2c(S(=O)(=O)N[C@@H](CCCNC(=N)N)C(=O)NCCC(=O)Nc3ccccc3)cccc12` [Sample 42, N^2-dansyl-N-(2-phenylcarbamoylethyl)-L-argininamide diacetate], for which, on thrombin, the IC (2-fold clotting time) is over 500 µM.

Turning to `CCCCCCCNC(=O)[C@H](CCCNC(=N)N)NS(=O)(=O)c1cccc2c(N(C)C)cccc12` [Sample 25, N^2 -dansyl-N-(n-heptyl)-L-argininamide], the IC (2-fold clotting time) at thrombin came out at 100 µM.

For `CCCCCCNC(=O)[C@H](CCCNC(=N)N)NS(=O)(=O)c1cccc2c(N(C)C)cccc12` [Sample 24, N^2 -dansyl-N-(n-hexyl)-L-argininamide monohydrate], the IC (2-fold clotting time) on thrombin was 20 µM.

For `CC(C)OC(=O)[C@H](CCCNC(=N)N)NS(=O)(=O)c1cccc2c(N(C)C)cccc12` [Sample 4, N^2 -dansyl-L-arginine isopropyl ester dihydrochloride], the IC (2-fold clotting time) on thrombin was found to be 30 µM.

`CN(Cc1ccccc1)C(=O)[C@H](CCCNC(=N)N)NS(=O)(=O)c1cccc2c(N(C)C)cccc12` [Sample 52, N^2 -dansyl-N-methyl-N-benzyl-L-argininamide]: on thrombin, the IC (2-fold clotting time) was determined as 7 µM.

Regarding `CC1CCN(C(=O)[C@H](CCCNC(=N)N)NS(=O)(=O)c2cccc3c(N(C)C)cccc23)CC1` [Sample 58, 4-methyl-1-(N^2-dansyl-L-arginyl)piperidine diacetate], the IC (2-fold clotting time) on thrombin amounted to 0.3 µM.

`CC1CCN(C(=O)[C@H](CCCNC(=N)N)NS(=O)(=O)c2cccc3c(N(C)C)cccc23)CC1` [4-methyl-1-(N^2-dansyl-L-arginyl)piperidine]: the median lethal dose (LD50) in series [1] was found to be 1310 mg/kg.

On to `COC(=O)C1CCN(C(=O)[C@H](CCCNC(=N)N)NS(=O)(=O)c2cccc3c(N(C)C)cccc23)CC1` [Sample 62, 4-methoxycarbonyl-1-(N^2-dansyl-L-arginyl)piperidine], for which the IC (2-fold clotting time) at thrombin came out at 2.8 µM.

In the case of `CN(C)c1cccc2c(S(=O)(=O)N[C@@H](CCCNC(=N)N)C(=O)N3CCCCCC3)cccc12` [Sample 64, N^2 -dansyl-N,N-hexamethylene-L-argininamide], the IC (2-fold clotting time) at thrombin was 0.9 µM.

Consider `CCCOC(=O)[C@H](CCCNC(=N)N)NS(=O)(=O)c1cccc2c(N(C)C)cccc12` [Sample 3, N^2 -dansyl-L-arginine n-propyl ester], for which the IC (2-fold clotting time) at thrombin came out at 2 µM.

On to `CCC1CCN(C(=O)[C@H](CCCNC(=N)N)NS(=O)(=O)c2cccc3c(N(C)C)cccc23)CC1` [4-ethyl-1-(N^2-dansyl-L-arginyl)piperidine], for which the LD50 in series [1] stood at 1380 mg/kg.
